The subject of data set [1] is HepG2. Briefly: Cytotoxicity against human HepG2 cells after 24 hrs by MTT assay. In kind it is functional, cell-based. The note with it: HepG2, 24 h.
Data set [2] can be described thus: Cytotoxicity against human QSG7701 cells after 24 hrs by MTT assay. It counts as cell-based. As to conditions: QSG7701, 24 h. On the technique in general: Tetrazolium assays rely on reduction of a dye to a coloured formazan, in cell work by metabolically active cells.
A short description of data set [3]: Cytotoxicity against human FHCC-98 cells after 24 hrs by MTT assay. The note with it: FHCC-98, 24 h. In kind it is functional, cell-based.
Data set [4] has as its system HepG2. Briefly: Induction of apoptosis in human HepG2 cells assessed as increase in caspase 3 activation using Ac-DEVD-pNA as substrate at 10 uM after 12 hrs by colorimetry relative to control. It counts as functional.
In data set [5] the test system is HepG2. Briefly: Cell cycle arrest in human HepG2 cells assessed as accumulation at G0/G1 phase at 30 uM after 24 hrs by FACS analysis (reference value: 53.7 %). In kind it is functional. A general note: A flow cytometer gives signals particle by particle.
The subject of data set [6] is HepG2. Briefly: Cell cycle arrest in human HepG2 cells assessed as accumulation at G2/M phase at 30 uM after 24 hrs by FACS analysis (reference value: 16.8 %). It counts as functional.
The test system of data set [7] is HepG2. As to the kind of experiment: Cell cycle arrest in human HepG2 cells assessed as accumulation at S phase at 30 uM after 24 hrs by FACS analysis (reference value: 29.5 %). It counts as functional.
Data set [8] concerns HepG2. As to the kind of experiment: Cell cycle arrest in human HepG2 cells assessed as accumulation at subG0 phase at 30 uM after 24 hrs by FACS analysis relative to control. In kind it is functional.
In data set [9] the test system is HepG2. As to the kind of experiment: Cell cycle arrest in human HepG2 cells assessed as accumulation at G0/G1 phase at 30 uM after 12 hrs by FACS analysis (reference value: 53.7 %). It counts as functional.
The test system of data set [10] is HepG2. As to the kind of experiment: Cell cycle arrest in human HepG2 cells assessed as accumulation at G2/M phase at 30 uM after 12 hrs by FACS analysis (reference value: 16.8 %). In kind it is functional.
In data set [11] the test system is HepG2. As to the kind of experiment: Cell cycle arrest in human HepG2 cells assessed as accumulation at S phase at 30 uM after 12 hrs by FACS analysis (reference value: 29.5 %). In kind it is functional.
The subject of data set [12] is HepG2. As to the kind of experiment: Cell cycle arrest in human HepG2 cells assessed as accumulation at subG0 phase at 30 uM after 12 hrs by FACS analysis relative to control. In kind it is functional.
In data set [13] the test system is HepG2. Briefly: Cell cycle arrest in human HepG2 cells assessed as accumulation at G0/G1 phase at 30 uM after 32 hrs by FACS analysis (reference value: 53.7 %). In kind it is functional.
Data set [14] deals with HepG2. As to the kind of experiment: Cell cycle arrest in human HepG2 cells assessed as accumulation at G2/M phase at 30 uM after 32 hrs by FACS analysis (reference value: 16.8 %). In kind it is functional.
Data set [15] relates to HepG2. Briefly: Cell cycle arrest in human HepG2 cells assessed as accumulation at S phase at 30 uM after 32 hrs by FACS analysis (reference value: 29.5 %). In kind it is functional.
The test system of data set [16] is HepG2. As to the kind of experiment: Cell cycle arrest in human HepG2 cells assessed as accumulation at subG0 phase at 30 uM after 32 hrs by FACS analysis relative to control. It counts as functional.
For data set [17], the system named is HepG2. As to the kind of experiment: Upregulation of cyclin B1 in human HepG2 cells at 30 uM after 12 to 32 hrs by Western blotting analysis. In kind it is functional, cell-based. On the technique in general: In western blotting, separated proteins are transferred to a membrane and probed.
Data set [18] deals with HepG2. As to the kind of experiment: Upregulation of cyclin B1 in human HepG2 cells at 30 to 50 uM after 24 hrs by Western blotting analysis. In kind it is functional, cell-based.
Data set [19] relates to HepG2. Briefly: Upregulation of Cdc-2 in human HepG2 cells at 30 uM after 12 to 32 hrs by Western blotting analysis. It counts as functional, cell-based.
The test system of data set [20] is HepG2. As to the kind of experiment: Upregulation of Cdc-2 in human HepG2 cells at 30 to 50 uM after 24 hrs by Western blotting analysis. It counts as functional, cell-based.
Data set [21] concerns HepG2. As to the kind of experiment: Induction of apoptosis in human HepG2 cells assessed as cell shrinkage at 30 uM after 24 hrs by phase-contrast microscopy. In kind it is functional, cell-based.
The subject of data set [22] is HepG2. As to the kind of experiment: Induction of apoptosis in human HepG2 cells assessed as Bax activation at 30 uM after 24 hrs by immunostaining. In kind it is functional, cell-based.
Data set [23] relates to HepG2. Briefly: Induction of apoptosis in human HepG2 cells assessed as nuclear fragmentation at 30 uM after 24 hrs by immunostaining. It counts as functional, cell-based.
Data set [24] concerns HepG2. As to the kind of experiment: Induction of apoptosis in human HepG2 cells assessed as chromatin condensation at 30 uM after 24 hrs by immunostaining. It counts as functional, cell-based.
The nature of data set [25]: Induction of apoptosis in human QSG7701 cells assessed as Bax activation at 30 uM after 24 hrs by immunostaining. In kind it is cell-based. As to conditions: qsg7701, 24 h.
Data set [26] relates to HepG2. As to the kind of experiment: Induction of apoptosis in human HepG2 cells assessed as PARP cleavage at 30 uM by Western blotting analysis. In kind it is functional, cell-based. The note with it: TDE = time-dependent effect.
In data set [27] the test system is HepG2. Briefly: Induction of apoptosis in human HepG2 cells assessed as increase in caspase 3 activation using Ac-DEVD-pNA as substrate at 30 uM after 12 hrs by colorimetry relative to control. In kind it is functional.
Data set [28] can be described thus: Induction of apoptosis in human QSG7701 cells assessed as increase in caspase 3 activation using Ac-DEVD-pNA as substrate at 30 uM after 12 hrs by colorimetry relative to control. It counts as cell-based. As to conditions: qsg7701, 12 h.
Data set [29] relates to HepG2. Briefly: Induction of apoptosis in human HepG2 cells assessed as up-regulation of Bax at 30 uM by Western blotting analysis. In kind it is functional, cell-based. As to conditions: TDE = time-dependent effect.
Data set [30] relates to HepG2. As to the kind of experiment: Induction of apoptosis in human HepG2 cells assessed as down-regulation of Bcl-2 at 30 uM by Western blotting analysis. In kind it is functional, cell-based. As to conditions: TDE = time-dependent effect.
The subject of data set [31] is FHCC-98. Briefly: Inhibition of human FHCC-98 cell adhesion to matrigel-coated plates at 50 uM after 30 to 60 mins by crystal violet staining-based spectrophotometry. In kind it is functional.
Data set [32] relates to FHCC-98. As to the kind of experiment: Inhibition of human FHCC-98 cell adhesion to matrigel-coated plates at 100 uM after 30 to 60 mins by crystal violet staining-based spectrophotometry. In kind it is functional.
For data set [33], the system named is HepG2. As to the kind of experiment: Cell cycle arrest in human HepG2 cells assessed as accumulation at G2/M phase at 30 uM. It counts as functional, cell-based. The note with it: TDE = time-dependent effect.
The subject of data set [34] is HepG2. Briefly: Cell cycle arrest in human HepG2 cells assessed as accumulation at G0/G1 phase at 50 uM after 24 hrs by FACS analysis (reference value: 53.7 %). In kind it is functional.
In data set [35] the test system is HepG2. As to the kind of experiment: Cell cycle arrest in human HepG2 cells assessed as accumulation at G2/M phase at 50 uM after 24 hrs by FACS analysis (reference value: 16.8 %). It counts as functional.
Data set [36] concerns HepG2. Briefly: Cell cycle arrest in human HepG2 cells assessed as accumulation at S phase at 50 uM after 24 hrs by FACS analysis (reference value: 29.5 %). In kind it is functional.
The subject of data set [37] is HepG2. As to the kind of experiment: Cell cycle arrest in human HepG2 cells assessed as accumulation at subG0 phase at 50 uM after 24 hrs by FACS analysis relative to control. In kind it is functional.

The source of these data is ChEMBL document CHEMBL2010666, “A resveratrol analog, phoyunbene B, induces G2/M cell cycle arrest and apoptosis in HepG2 liver cancer cells” (Bioorg Med Chem Lett, 2012).

The structures appear in SMILES notation. Activity calls are given as the source filed them. The rule behind the calls is not given here.

Broadly, the IC50 is the concentration that inhibits the measured activity by half. Higher therefore signals lower potency. Turning to `Oc1cccc(/C=C/c2cc(O)cc(O)c2)c1`, the concentration for half-maximal inhibition (IC50) in the data set on HepG2 [1] is 95.8 µM; in data set [2], greater than 100 µM; in data set [3], greater than 100 µM.

As for `CC[C@@]1(O)C(=O)OCc2c1cc1n(c2=O)Cc2cc3ccccc3nc2-1` [CAMPTOTHECIN], the IC50 was found to be 6.4 µM in the data set with HepG2 [1], 18.3 µM in [2] and 15.2 µM in data set [3]. For the same compound, the “fold change (FC)” value in the data set on HepG2 [4] was found to be 4.

In the case of `COc1cc(O)cc(/C=C/c2ccc(OC)c(O)c2OC)c1` [PHOYUNBENE A], the IC50 (in the data set on HepG2 [1]; in data set [2]; in data set [3]) was greater than 100 µM each time.

With `COc1cc(O)cc(/C=C/c2ccc(O)c(OC)c2OC)c1` [PHOYUNBENE B], the concentration for half-maximal inhibition (IC50) in the data set with HepG2 [1] was 37.1 µM; in data set [2], greater than 100 µM; in data set [3], 45.8 µM. Moreover, the Activity in the data set with HepG2 [5] came to 17.7%; in the data set with HepG2 [6] it was 62.8%; with HepG2 [7] it was 13%; with HepG2 [8], 6.5%; with HepG2 [9], 38.2%; in the data set on HepG2 [10] it was 41.3%. The Activity in the data set on HepG2 [11] is 20.5%; with HepG2 [12] it was 0%; in the data set with HepG2 [13], 4.6%; in the data set on HepG2 [14], 75.2%; in the data set with HepG2 [15], 7.9%; in the data set on HepG2 [16] it was 12.3%. Further, the Activity entry in data set [25] is “Non-toxic”; in the data set on HepG2 [26] it was “tde”; in data set [28] it was “Non-toxic”; in the data set on HepG2 [29] it was “tde”; in the data set on HepG2 [30] it was “tde”; in the data set on HepG2 [33], “tde”. Moreover, the result with HepG2 [17], in the data set on HepG2 [18], in the data set with HepG2 [21], with HepG2 [22], in the data set on HepG2 [23] and in the data set with HepG2 [24] was Active. In addition, the result in the data set on HepG2 [19] and in the data set with HepG2 [20] was inactive. Also, the “fold change (FC)” value in the data set on HepG2 [27] was determined as 5. The inhibition entry in the data set on FHCC-98 [31] and in the data set on FHCC-98 [32] was “Active” in each case.

In the case of `COc1cc(O)cc(/C=C/c2cccc(O)c2OC)c1` [PHOYUNBENE C], the half-maximal inhibitory concentration (IC50) with HepG2 [1] is 90.8 µM; in [2], greater than 100 µM; in [3] it was greater than 100 µM.

For the compound `COc1cc(O)cc(/C=C/c2cccc(OC)c2OC)c1` [PHOYUNBENE D], the IC50 in the data set with HepG2 [1] was greater than 100 µM; in data set [2] it was greater than 100 µM; in [3], 80.5 µM.

Regarding `COc1c(O)cccc1/C=C/c1cc(O)cc(O)c1` [PHOYUNBENE E], the 50% inhibitory concentration (IC50) (with HepG2 [1]; in data set [2]; in data set [3]) was greater than 100 µM in each case.

Take `COc1cc(O)cc(/C=C/c2cccc(O)c2O)c1` [PHOYUNBENE F]: the half-maximal inhibitory concentration (IC50) (with HepG2 [1]; in [2]; in [3]) was greater than 100 µM each time.

As to `Oc1ccc(/C=C/c2cc(O)cc(O)c2)cc1` [RESVERATROL], the IC50 was 80.3 µM in the data set on HepG2 [1], greater than 100 µM in data set [2] and 95.2 µM in data set [3]. Further, the Activity in the data set with HepG2 [34] was 31.9%; with HepG2 [35], 11.7%; with HepG2 [36], 56.3%; in the data set with HepG2 [37] it was 0%. Also, the inhibition result in the data set with FHCC-98 [31] and with FHCC-98 [32] was “Active” in each case.
